Earlier results, collected in patent publication US6673767B1, “Gel composition and methods” (Alza Corporation, priority 1996, dated 2004).

Conditions: for Water Miscibility: solvent in water (Merck)

| Compound | Water Miscibility | reported solubility in water (solvent in water) |
| --- | --- | --- |
| O=C(OCc1ccccc1)c1ccccc1 [Benzyl Benzoate, benzyl benzoate] | insol. in water (Merck) |  |
| CN1CCCC1=O [NMP, N-methyl-2-pyrrolidone] | misc. with water (Merck) |  |
| CC(=O)OCC(COC(C)=O)OC(C)=O [Triacetin, triacetin] | 7% sol. in water (Merck) | 7.17 grams in 100 ml of water |
